Counter-ions that a name gives are not always drawn. Like-named read-outs stand apart in the source and are kept apart here.
How the values were obtained:
Assay in all cases: AK assay 384-well format, Prestwick library screening
[1] = test system: E. cloacae; type: cell-based, Enterobacter cloacae; conditions: for fold induction at 50 µM: Enterobacter cloacae, 3 h; for AK-based Prestwick Library Screening Results: E. cloacae (increase in extracellular AK activity): 384-well
[2] = test system: K. pneumoniae; type: cell-based, Klebsiella pneumoniae; conditions: for fold induction at 50 µM: Klebsiella pneumoniae, 3 h; for AK-based Prestwick Library Screening Results: K. pneumoniae (increase in extracellular AK activity): 384-well
[3] = test system: A. baumannii strain 98-37-09; type: cell-based, Acinetobacter baumannii; conditions: for fold induction at 50 µM: Acinetobacter baumannii, 983709, 3 h; for AK-based Prestwick Library Screening Results: A. baumannii (increase in extracellular AK activity): 384-well
[4] = test system: E. coli; type: cell-based, Escherichia coli; conditions: for fold induction at 50 µM: Escherichia coli, 3 h; for AK-based Prestwick Library Screening Results: E. coli (increase in extracellular AK activity): 384-well
[5] = test system: E. faecium; type: cell-based, Enterococcus faecium; conditions: for fold induction at 50 µM: Enterococcus faecium, 3 h; for AK-based Prestwick Library Screening Results: E. faecium (increase in extracellular AK activity): 384-well
[6] = test system: S. aureus strain USA300-0114; type: cell-based, Staphylococcus aureus; conditions: for fold induction at 50 µM: Staphylococcus aureus, USA300, 3 h; for AK-based Prestwick Library Screening Results: S. aureus (increase in extracellular AK activity): 384-well
[7] = test system: P. aeruginosa; type: cell-based, Pseudomonas aeruginosa; conditions: for fold induction at 50 µM: Pseudomonas aeruginosa, 3 h; for AK-based Prestwick Library Screening Results: P. aeruginosa (increase in extracellular AK activity): 384-well
[8] = planktonic E. cloacae, 50 μM final drug concentration, […]
[9] = planktonic K. pneumoniae, 50 μM final drug concentration, […]
[10] = planktonic A. baumannii, 50 μM final drug concentration, […]
[11] = planktonic E. coli, 50 μM final drug concentration, […]
[12] = planktonic E. faecium, 50 μM final drug concentration, […]
[13] = planktonic S. aureus, 50 μM final drug concentration, […]
[14] = planktonic P. aeruginosa, 50 μM final drug concentration, […]
[15] = 50 μM final drug concentration, 384-well format, cutoff for positive-scoring molecules 3-fold increase, read-out: AK-based Prestwick Library Screening Results, E. cloacae (increase in extracellular AK activity)
[16] = 50 μM final drug concentration, 384-well format, cutoff for positive-scoring molecules 3-fold increase, read-out: AK-based Prestwick Library Screening Results, K. pneumoniae (increase in extracellular AK activity)
[17] = 50 μM final drug concentration, 384-well format, cutoff for positive-scoring molecules 3-fold increase, read-out: AK-based Prestwick Library Screening Results, A. baumannii (increase in extracellular AK activity)
[18] = 50 μM final drug concentration, 384-well format, cutoff for positive-scoring molecules 3-fold increase, read-out: AK-based Prestwick Library Screening Results, E. coli (increase in extracellular AK activity)
[19] = 50 μM final drug concentration, 384-well format, cutoff for positive-scoring molecules 3-fold increase, read-out: AK-based Prestwick Library Screening Results, E. faecium (increase in extracellular AK activity)
[20] = 50 μM final drug concentration, 384-well format, cutoff for positive-scoring molecules 3-fold increase, read-out: AK-based Prestwick Library Screening Results, S. aureus (increase in extracellular AK activity)
[21] = 50 μM final drug concentration, 384-well format, cutoff for positive-scoring molecules 3-fold increase, read-out: AK-based Prestwick Library Screening Results, P. aeruginosa (increase in extracellular AK activity)

## Colistin sulfate
[1]; [8]
  AK-based Prestwick Library Screening Results, E. cloacae (increase in extracellular AK activity): 0.7
[2]; [9]
  AK-based Prestwick Library Screening Results, K. pneumoniae (increase in extracellular AK activity): 24.1
[3]; [10]
  AK-based Prestwick Library Screening Results, A. baumannii (increase in extracellular AK activity): 10.0
[4]; [11]
  AK-based Prestwick Library Screening Results, E. coli (increase in extracellular AK activity): 42.2
[5]; [12]
  AK-based Prestwick Library Screening Results, E. faecium (increase in extracellular AK activity): 1.0
[6]; [13]
  AK-based Prestwick Library Screening Results, S. aureus (increase in extracellular AK activity): 0.6
[7]; [14]
  AK-based Prestwick Library Screening Results, P. aeruginosa (increase in extracellular AK activity): 23.6

## C=CCN1CC[C@]23c4c5ccc(O)c4O[C@H]2C(=O)CC[C@@]3(O)[C@H]1C5 [Naloxone hydrochloride]
[1]; read-out: AK-based Prestwick Library Screening Results, E. cloacae (increase in extracellular AK activity)
  fold induction at 50 µM: 1.1
[2]; read-out: AK-based Prestwick Library Screening Results, K. pneumoniae (increase in extracellular AK activity)
  fold induction at 50 µM: 0.6
[3]; read-out: AK-based Prestwick Library Screening Results, A. baumannii (increase in extracellular AK activity)
  fold induction at 50 µM: 0.8
[4]; read-out: AK-based Prestwick Library Screening Results, E. coli (increase in extracellular AK activity)
  fold induction at 50 µM: 0.9
[5]; read-out: AK-based Prestwick Library Screening Results, E. faecium (increase in extracellular AK activity)
  fold induction at 50 µM: 0.8
[6]; read-out: AK-based Prestwick Library Screening Results, S. aureus (increase in extracellular AK activity)
  fold induction at 50 µM: 0.7
[7]; read-out: AK-based Prestwick Library Screening Results, P. aeruginosa (increase in extracellular AK activity)
  fold induction at 50 µM: 0.8

## Ifenprodil tartrate
[1]; planktonic E. cloacae, 50 μM final drug concentration, cutoff for positive-scoring molecules 3-fold increase
  AK-based Prestwick Library Screening Results: E. cloacae (increase in extracellular AK activity): 1.3
[2]; planktonic K. pneumoniae, 50 μM final drug concentration, cutoff for positive-scoring molecules 3-fold increase
  AK-based Prestwick Library Screening Results: K. pneumoniae (increase in extracellular AK activity): 1.3
[3]; planktonic A. baumannii, 50 μM final drug concentration, cutoff for positive-scoring molecules 3-fold increase
  AK-based Prestwick Library Screening Results: A. baumannii (increase in extracellular AK activity): 1.4
[4]; planktonic E. coli, 50 μM final drug concentration, cutoff for positive-scoring molecules 3-fold increase
  AK-based Prestwick Library Screening Results: E. coli (increase in extracellular AK activity): 1.2
[5]; planktonic E. faecium, 50 μM final drug concentration, cutoff for positive-scoring molecules 3-fold increase
  AK-based Prestwick Library Screening Results: E. faecium (increase in extracellular AK activity): 1.0
[6]; planktonic S. aureus, 50 μM final drug concentration, cutoff for positive-scoring molecules 3-fold increase
  AK-based Prestwick Library Screening Results: S. aureus (increase in extracellular AK activity): 1.1
[7]; planktonic P. aeruginosa, 50 μM final drug concentration, cutoff for positive-scoring molecules 3-fold increase
  AK-based Prestwick Library Screening Results: P. aeruginosa (increase in extracellular AK activity): 1.2

## Cc1ccccc1N1C(=O)c2cc(S(N)(=O)=O)c(Cl)cc2NC1C (stereo not drawn) [Metolazone]
[1]; [15]
  fold induction at 50 µM: 1
[2]; [16]
  fold induction at 50 µM: 0.6
[3]; [17]
  fold induction at 50 µM: 0.8
[4]; [18]
  fold induction at 50 µM: 0.8
[5]; [19]
  fold induction at 50 µM: 0.8
[6]; [20]
  fold induction at 50 µM: 0.7
[7]; [21]
  fold induction at 50 µM: 0.7

## CCOC1O[C@H]([C@@H](COCc2ccccc2)OCc2ccccc2)[C@H](OCc2ccccc2)[C@H]1O (stereo partly drawn) [Tribenoside]
[1]; planktonic E. cloacae, 50 μM final drug concentration, positive cutoff 3-fold increase, read-out: AK-based Prestwick library screening result, E. cloacae (fold increase in extracellular AK activity)
  fold induction at 50 µM: 1.5
[2]; planktonic K. pneumoniae, 50 μM final drug concentration, positive cutoff 3-fold increase, read-out: AK-based Prestwick library screening result, K. pneumoniae (fold increase in extracellular AK activity)
  fold induction at 50 µM: 0.9
[3]; planktonic A. baumannii, 50 μM final drug concentration, positive cutoff 3-fold increase, read-out: AK-based Prestwick library screening result, A. baumannii (fold increase in extracellular AK activity)
  fold induction at 50 µM: 1.7
[4]; planktonic E. coli, 50 μM final drug concentration, positive cutoff 3-fold increase, read-out: AK-based Prestwick library screening result, E. coli (fold increase in extracellular AK activity)
  fold induction at 50 µM: 0.9
[5]; planktonic E. faecium, 50 μM final drug concentration, positive cutoff 3-fold increase, read-out: AK-based Prestwick library screening result, E. faecium (fold increase in extracellular AK activity)
  fold induction at 50 µM: 1.1
[6]; planktonic S. aureus, 50 μM final drug concentration, positive cutoff 3-fold increase, read-out: AK-based Prestwick library screening result, S. aureus (fold increase in extracellular AK activity)
  fold induction at 50 µM: 0.6
[7]; planktonic P. aeruginosa, 50 μM final drug concentration, positive cutoff 3-fold increase, read-out: AK-based Prestwick library screening result, P. aeruginosa (fold increase in extracellular AK activity)
  fold induction at 50 µM: 1.1

## CO[C@@H]1[C@@H](OC(N)=O)[C@@H](O)[C@H](Oc2ccc3c(O)c(NC(=O)c4ccc(O)c(CC=C(C)C)c4)c(=O)oc3c2C)OC1(C)C [Novobiocin sodium salt]
[1]; 50 μM final drug concentration, planktonic, cutoff for positive-scoring molecules 3-fold increase, read-out: AK-based Prestwick Library Screening Results, E. cloacae (fold increase in extracellular AK activity)
  fold induction at 50 µM: 1.6
[2]; 50 μM final drug concentration, planktonic, cutoff for positive-scoring molecules 3-fold increase, read-out: AK-based Prestwick Library Screening Results, K. pneumoniae (fold increase in extracellular AK activity)
  fold induction at 50 µM: 0.7
[3]; 50 μM final drug concentration, planktonic, cutoff for positive-scoring molecules 3-fold increase, read-out: AK-based Prestwick Library Screening Results, A. baumannii (fold increase in extracellular AK activity)
  fold induction at 50 µM: 1.1
[4]; 50 μM final drug concentration, planktonic, cutoff for positive-scoring molecules 3-fold increase, read-out: AK-based Prestwick Library Screening Results, E. coli (fold increase in extracellular AK activity)
  fold induction at 50 µM: 3.2
[5]; 50 μM final drug concentration, planktonic, cutoff for positive-scoring molecules 3-fold increase, read-out: AK-based Prestwick Library Screening Results, E. faecium (fold increase in extracellular AK activity)
  fold induction at 50 µM: 1.5
[6]; 50 μM final drug concentration, planktonic, cutoff for positive-scoring molecules 3-fold increase, read-out: AK-based Prestwick Library Screening Results, S. aureus (fold increase in extracellular AK activity)
  fold induction at 50 µM: 4.5
[7]; 50 μM final drug concentration, planktonic, cutoff for positive-scoring molecules 3-fold increase, read-out: AK-based Prestwick Library Screening Results, P. aeruginosa (fold increase in extracellular AK activity)
  fold induction at 50 µM: 1

## c1ccc2c(c1)CCCc1cc(NCCN3CCOCC3)nnc1-2 [SR-95639A]
[1]; [8]
  AK-based Prestwick Library Screening Results: E. cloacae (increase in extracellular AK activity): 0.4
[2]; [9]
  AK-based Prestwick Library Screening Results: K. pneumoniae (increase in extracellular AK activity): 0.5
[3]; [10]
  AK-based Prestwick Library Screening Results: A. baumannii (increase in extracellular AK activity): 0.5
[4]; [11]
  AK-based Prestwick Library Screening Results: E. coli (increase in extracellular AK activity): 0.5
[5]; [12]
  AK-based Prestwick Library Screening Results: E. faecium (increase in extracellular AK activity): 0.8
[6]; [13]
  AK-based Prestwick Library Screening Results: S. aureus (increase in extracellular AK activity): 0.4
[7]; [14]
  AK-based Prestwick Library Screening Results: P. aeruginosa (increase in extracellular AK activity): 0.4

## COc1ccc(OC)c(C(O)CNC(=O)CN)c1 (stereo not drawn) [Midodrine hydrochloride]
[1]; [15]
  fold induction at 50 µM: 1
[2]; [16]
  fold induction at 50 µM: 0.7
[3]; [17]
  fold induction at 50 µM: 0.9
[4]; [18]
  fold induction at 50 µM: 1
[5]; [19]
  fold induction at 50 µM: 1
[6]; [20]
  fold induction at 50 µM: 0.9
[7]; [21]
  fold induction at 50 µM: 0.9

## CC[C@H](c1ccc(O)cc1)[C@@H](CC)c1ccc(O)cc1 [Hexestrol]
[1]; 50 μM final drug concentration, cutoff for positive-scoring molecules 3-fold increase, read-out: AK-based Prestwick Library Screening Results, E. cloacae (fold increase in extracellular AK activity)
  fold induction at 50 µM: 1.6
[2]; 50 μM final drug concentration, cutoff for positive-scoring molecules 3-fold increase, read-out: AK-based Prestwick Library Screening Results, K. pneumoniae (fold increase in extracellular AK activity)
  fold induction at 50 µM: 0.7
[3]; 50 μM final drug concentration, cutoff for positive-scoring molecules 3-fold increase, read-out: AK-based Prestwick Library Screening Results, A. baumannii (fold increase in extracellular AK activity)
  fold induction at 50 µM: 3
[4]; 50 μM final drug concentration, cutoff for positive-scoring molecules 3-fold increase, read-out: AK-based Prestwick Library Screening Results, E. coli (fold increase in extracellular AK activity)
  fold induction at 50 µM: 1.4
[5]; 50 μM final drug concentration, cutoff for positive-scoring molecules 3-fold increase, read-out: AK-based Prestwick Library Screening Results, E. faecium (fold increase in extracellular AK activity)
  fold induction at 50 µM: 1.2
[6]; 50 μM final drug concentration, cutoff for positive-scoring molecules 3-fold increase, read-out: AK-based Prestwick Library Screening Results, S. aureus (fold increase in extracellular AK activity)
  fold induction at 50 µM: 0.7
[7]; 50 μM final drug concentration, cutoff for positive-scoring molecules 3-fold increase, read-out: AK-based Prestwick Library Screening Results, P. aeruginosa (fold increase in extracellular AK activity)
  fold induction at 50 µM: 1.1

From patent publication US10004701B2, “Methods and compositions for treating infection” (UNIVERSITY OF ROCHESTER, priority 2012, dated 2018)
